{
  "source": "ChEMBL document CHEMBL1158083",
  "about": "“Indole alkaloids from Cephalanceropsis gracilis” (J Nat Prod, 2006)",
  "type_in_all_cases": "functional, cell-based",
  "key": {"SF-268": {"tested_on": "SF-268", "test": "Cytotoxicity against human SF-268 cells by MTT assay"}, "MCF7": {"tested_on": "MCF7", "test": "Cytotoxicity against human MCF7 cells by MTT assay"}, "NCI-H460": {"tested_on": "NCI-H460", "test": "Cytotoxicity against human NCI-H460 cells by MTT assay"}},
  "data": [
    {"compound": "O=C1C(C2(C3(C4=Nc5ccccc5C4=O)Nc4ccccc4C3=O)Nc3ccccc3C2=O)=Nc2ccccc21", "note": "(stereo not drawn) [CEPHALINONE D]", "values": [
      {"measurement": "IC50", "setting": "SF-268", "value": 12.2, "unit": "µM"},
      {"measurement": "IC50", "setting": "MCF7", "value": 7.57, "unit": "µM"},
      {"measurement": "IC50", "setting": "NCI-H460", "value": 7.8, "unit": "µM"}
    ]}
  ]
}
